target: T1, PDE5A1 (human PDE5 from platelets) (Homo sapiens, UniProt O76074); experiment: Inhibition of type 5 phosphodiesterase (PDE5) activity, modified SPA test; type: biochemical; details: PDE5-containing human platelet lysate, 0.5 μM cGMP, value classes, read-out: PDE5A1 inhibitory values [measured as −logIC50 (mol/l)] (converted)
T1 construct: from tissue; host or cells: platelets from fresh blood of human donors (10,000 g supernatant of sonified platelets)
Experimental: Method for Measuring Inhibition of the Type 5 Phosphodiesterase (PDE5) Activity:
As a source for human PDE5, platelets are used. For that purpose, 150 ml fresh blood from human donors anticoagulated with citrate [final concentration 0.3% (w/v)] is centrifuged at 200 g for 10 min to obtain the so-called platelet-rich-plasma (PRP) as a supernatant. 1/10 volume of ACD solution (85 mM Na3-citrate, 111 mM D-glucose, 71 mM citric acid, pH 4.4) is added to 9/10 volume of PRP. After centrifugation (1,400 g, 10 min) the cell pellet is resuspended in 3 ml homogenization buffer (NaCl 140 mM, KCl 3.8 mM, EGTA (ethylene glycol tetraacetic acid) 1 mM, MgCl2 1 mM, Tris-HCl 20 mM, beta-mercaptoethanol 1 mM, pH 8.2) plus protease-inhibitor mix giving rise to the final concentrations of 0.5 mM Pefablock (Roche), 10 μM Leupeptin, 5 μM Trypsininhibitor, 2 mM Benzamidin and 10 μM Pepstatin A. The suspension is sonified and thereafter centrifuged for 15 min at 10,000 g. The resulting supernatant (platelet lysate) is used for enzymatic testings.
PDE5A1 activity is inhibited by the compounds of the present subject matter in a modified SPA (scintillation proximity assay) test, supplied by Amersham Biosciences (see procedural instructions “phosphodiesterase [3H]cAMP SPA enzyme assay, code TRKQ 7090”), carried out in 96-well microtitre plates (MTP's). The test volume is 100 μl and contains 20 mM Tris buffer (pH 7.4), 0.1 mg of BSA (bovine serum albumin)/ml, 5 mM Mg^2+, 1 μM motapizone, 10 nM PDE2 inhibitor 2-(3,4-dimethoxybenzyl)-7-[(1R,2R)-2-hydroxy-1-(2-phenylethyl)propyl]-5-methylimidazo[5,1-t][1,2,4]triazin-4(3H)-one, 0.5 μM cGMP (cyclic guanosine monophosphate) (including about 50,000 cpm of [3H]cGMP as a tracer), 1 μl of the respective compound dilution in dimethylsulfoxide (DMSO) and sufficient PDE5-containing platelet lysat (10,000×g supernatant, see above) to ensure that 10-20 wt % of the cGMP is converted under the said experimental conditions. […] After a preincubation of 5 min at 37° C., the reaction is started by adding the substrate (cGMP) and the assay is incubated for a further 15 min; after that, it is stopped by adding SPA beads (50 μl). In accordance with the manufacturer's instructions, the SPA beads had previously been resuspended in water, but are then diluted 1:3 (v/v) in water; the diluted solution also contains 3 mM 8-methoxymethyl-3-isobutyl-1-methylxanthine (IBMX) to ensure a complete PDE activity stop. After the beads have been sedimented (>30 min), the MTP's are analyzed in commercially available luminescence detection devices. The corresponding IC50 values of the compounds for the inhibition of PDE activity are determined from the concentration-effect curves by means of non-linear regression.

| Structure (SMILES) | IC50 [nM] |
| --- | --- |
| CC(=O)N[C@H]1CC[C@H](NC(=O)c2c(C)[nH]c3c(-c4c(OCC5CC5)ccc5c4OCO5)ccnc23)CC1 [Example E05, N-(trans-4-Acetamidocyclohexyl)-7-[5-(cyclopropylmethoxy)-1,3-benzodioxol-4-yl]-2-methyl-1H-pyrrolo[3,2-b]pyridine-3-carboxamide] | < 1 |
| CC(=O)N[C@H]1CC[C@@H](NC(=O)c2c(C)[nH]c3c(-c4c(OCC5CC5)ccc5c4OCO5)ccnc23)CC1 [Example E06, N-(cis-4-acetamidocyclohexyl)-7-[5-(cyclopropylmethoxy)-1,3-benzodioxol-4-yl]-2-methyl-1H-pyrrolo[3,2-b]pyridine-3-carboxamide] | < 1 |
| CCC(=O)N[C@H]1CC[C@@H](NC(=O)c2c(C)[nH]c3c(-c4c(OCC5CC5)ccc5c4OCO5)ccnc23)CC1 [Example E07, 7-[5-(Cyclopropylmethoxy)-1,3-benzodioxol-4-yl]-2-methyl-N-[cis-4-(propionylamino)cyclohexyl]-1H-pyrrolo[3,2-b]pyridine-3-carboxamide] | < 1 |
| COCC(=O)N[C@H]1CC[C@@H](NC(=O)c2c(C)[nH]c3c(-c4c(OCC5CC5)ccc5c4OCO5)ccnc23)CC1 [Example E08, 7-[5-(Cyclopropylmethoxy)-1,3-benzodioxol-4-yl]-N-{cis-4-[(methoxyacetyl)amino]cyclohexyl}-2-methyl-1H-pyrrolo[3,2-b]pyridine-3-carboxamide] | < 1 |
| CCOC(=O)N[C@H]1CC[C@@H](NC(=O)c2c(C)[nH]c3c(-c4c(OCC5CC5)ccc5c4OCO5)ccnc23)CC1 [Example E09, Ethyl {cis-4-[({7-[5-(cyclopropylmethoxy)-1,3-benzodioxol-4-yl]-2-methyl-1H-pyrrolo[3,2-b]pyridin-3-yl}carbonyl)amino]cyclohexyl}carbamate] | < 1 |
| CC(=O)N1CCC(NC(=O)c2c(C)[nH]c3c(-c4ccc(F)cc4OCC4CC4)ccnc23)CC1 [Example E10, N-(1-Acetylpiperidin-4-yl)-7-[2-(cyclopropylmethoxy)-4-fluorophenyl]-2-methyl-1H-pyrrolo[3,2-b]pyridine-3-carboxamide] | < 1 |
| CCC(=O)N1CCC(NC(=O)c2c(C)[nH]c3c(-c4ccc(F)cc4OCC4CC4)ccnc23)CC1 [Example E11, 7-[2-(Cyclopropylmethoxy)-4-fluorophenyl]-2-methyl-N-(1-propanoylpiperidin-4-yl)-1H-pyrrolo[3,2-b]pyridine-3-carboxamide] | < 1 |
| COCC(=O)N1CCC(NC(=O)c2c(C)[nH]c3c(-c4ccc(F)cc4OCC4CC4)ccnc23)CC1 [Example E12, 7-[2-(Cyclopropylmethoxy)-4-fluorophenyl]-N-[1-(methoxyacetyl)piperidin-4-yl]-2-methyl-1H-pyrrolo[3,2-b]pyridine-3-carboxamide] | 1 to 10 |
| CC(=O)N[C@H]1CC[C@H](NC(=O)c2c(C)[nH]c3c(-c4ccc(F)cc4OCC4CC4)ccnc23)CC1 [Example E13, N-[trans-4-(Acetylamino)cyclohexyl]-7-[2-(cyclopropylmethoxy)-4-fluorophenyl]-2-methyl-1H-pyrrolo[3,2-b]pyridine-3-carboxamide] | < 1 |
| CCC(=O)N[C@H]1CC[C@H](NC(=O)c2c(C)[nH]c3c(-c4ccc(F)cc4OCC4CC4)ccnc23)CC1 [Example E14] | < 1 |
| COCC(=O)N[C@H]1CC[C@H](NC(=O)c2c(C)[nH]c3c(-c4ccc(F)cc4OCC4CC4)ccnc23)CC1 [Example E15, 7-[2-(Cyclopropylmethoxy)-4-fluorophenyl]-N-{trans-4-[(methoxyacetyl)amino]cyclohexyl}-2-methyl-1H-pyrrolo[3,2-b]pyridine-3-carboxamide] | < 1 |
| CC(=O)N[C@H]1CC[C@@H](NC(=O)c2c(C)[nH]c3c(-c4ccc(F)cc4OCC4CC4)ccnc23)CC1 [Example E16, N-[cis-4-(Acetylamino)cyclohexyl]-7-[2-(cyclopropylmethoxy)-4-fluorophenyl]-2-methyl-1H-pyrrolo[3,2-b]pyridine-3-carboxamide] | 1 to 10 |
| CCC(=O)N[C@H]1CC[C@@H](NC(=O)c2c(C)[nH]c3c(-c4ccc(F)cc4OCC4CC4)ccnc23)CC1 [Example E17] | 1 to 10 |
| COCC(=O)N[C@H]1CC[C@@H](NC(=O)c2c(C)[nH]c3c(-c4ccc(F)cc4OCC4CC4)ccnc23)CC1 [Example E18, 7-[2-(Cyclopropylmethoxy)-4-fluorophenyl]-N-{cis-4-[(methoxyacetyl)amino]cyclohexyl}-2-methyl-1H-pyrrolo[3,2-b]pyridine-3-carboxamide] | 1 to 10 |
| CC(=O)N1CCC(NC(=O)c2c(C)[nH]c3c(-c4cc(F)ccc4OCC4CC4)ccnc23)CC1 [Example E19, N-(1-Acetylpiperidin-4-yl)-7-[2-(cyclopropylmethoxy)-5-fluorophenyl]-2-methyl-1H-pyrrolo[3,2-b]pyridine-3-carboxamide] | 1 to 10 |
| CCC(=O)N1CCC(NC(=O)c2c(C)[nH]c3c(-c4cc(F)ccc4OCC4CC4)ccnc23)CC1 [Example E20, 7-[2-(Cyclopropylmethoxy)-5-fluorophenyl]-2-methyl-N-(1-propanoylpiperidin-4-yl)-1H-pyrrolo[3,2-b]pyridine-3-carboxamide] | < 1 |
| COCC(=O)N1CCC(NC(=O)c2c(C)[nH]c3c(-c4cc(F)ccc4OCC4CC4)ccnc23)CC1 [Example E21, 7-[2-(Cyclopropylmethoxy)-5-fluorophenyl]-N-[1-(methoxyacetyl)piperidin-4-yl]-2-methyl-1H-pyrrolo[3,2-b]pyridine-3-carboxamide] | 1 to 10 |
| CC(=O)N[C@H]1CC[C@H](NC(=O)c2c(C)[nH]c3c(-c4cc(F)ccc4OCC4CC4)ccnc23)CC1 [Example E22, N-[trans-4-(Acetylamino)cyclohexyl]-7-[2-(cyclopropylmethoxy)-5-fluorophenyl]-2-methyl-1H-pyrrolo[3,2-b]pyridine-3-carboxamide] | < 1 |
| CCC(=O)N[C@H]1CC[C@H](NC(=O)c2c(C)[nH]c3c(-c4cc(F)ccc4OCC4CC4)ccnc23)CC1 [Example E23, 7-[2-(Cyclopropylmethoxy)-5-fluorophenyl]-2-methyl-N-[trans-4-(propanoylamino)cyclohexyl]-1H-pyrrolo[3,2-b]pyridine-3-carboxamide] | < 1 |
| COCC(=O)N[C@H]1CC[C@H](NC(=O)c2c(C)[nH]c3c(-c4cc(F)ccc4OCC4CC4)ccnc23)CC1 [Example E24, 7-[2-(Cyclopropylmethoxy)-5-fluorophenyl]-N-{trans-4-[(methoxyacetyl)amino]cyclohexyl}-2-methyl-1H-pyrrolo[3,2-b]pyridine-3-carboxamide] | < 1 |
| CC(=O)N[C@H]1CC[C@@H](NC(=O)c2c(C)[nH]c3c(-c4cc(F)ccc4OCC4CC4)ccnc23)CC1 [Example E25, N-[cis-4-(Acetylamino)cyclohexyl]-7-[2-(cyclopropylmethoxy)-5-fluorophenyl]-2-methyl-1H-pyrrolo[3,2-b]pyridine-3-carboxamide] | 1 to 10 |
| CCC(=O)N[C@H]1CC[C@@H](NC(=O)c2c(C)[nH]c3c(-c4cc(F)ccc4OCC4CC4)ccnc23)CC1 [Example E26, 7-[2-(Cyclopropylmethoxy)-5-fluorophenyl]-2-methyl-N-[cis-4-(propanoylamino)cyclohexyl]-1H-pyrrolo[3,2-b]pyridine-3-carboxamide] | 1 to 10 |
| COCC(=O)N[C@H]1CC[C@@H](NC(=O)c2c(C)[nH]c3c(-c4cc(F)ccc4OCC4CC4)ccnc23)CC1 [Example E27, 7-[2-(Cyclopropylmethoxy)-5-fluorophenyl]-N-{cis-4-[(methoxyacetyl)amino]cyclohexyl}-2-methyl-1H-pyrrolo[3,2-b]pyridine-3-carboxamide] | 1 to 10 |
| COc1ccc(-c2ccnc3c(C(=O)NC4CCN(C(C)=O)CC4)c(C)[nH]c23)c(OCC2CC2)c1 [Example E31, N-(1-Acetylpiperidin-4-yl)-7-[2-(cyclopropylmethoxy)-4-methoxyphenyl]-2-methyl-1H-pyrrolo[3,2-b]pyridine-3-carboxamide] | < 1 |
